The values below come from patent US6271215A, “Sulfated oligosaccharides having anticoagulant/antithrombotic activity” (The Australian National University, priority 1997, dated 2001).

Where only a bound is given, the exact number is not on record here.

Experiment [1] concerns human plasma. Briefly: Activated partial thromboplastin time (APTT) test, human plasma. In kind it is biochemical. Conditions: for Increase in Coagulation Time: increase in coagulation time (seconds) from a 1 μg/ml increase in concentration, linear regression, pooled plasma from 90 donors; for Relative Increase in Coagulation Time: Human plasma, vs untreated control; for Coagulation Time: PI-88 8.6 μg/ml; for anticoagulant activity (in words): APTT test. The text has this:
Heparin (anticoagulant activity 120 U/mg) is included for comparison. Data obtained with pooled plasma from 90 donors, the coagulation time of the plasma being 30.8 seconds in the absence of inhibitors. Results representative of four separate experiments. Table 1 summarises the anticoagulant activity of 19 sulfated oligosaccharides, as measured by the activated partial thromboplastin time (APTT) test. Similar results were obtained with the thrombin time test. […] Chain length, monosaccharide makeup and linkage, all appear to be critical factors. […] Furthermore, a striking feature of the maltose series is that chain elongation y a single residue from the maltotetraose to maltopentaose results in a 19-fold increase in anticoagulant activity. […] The glucose series of oligosaccharides emphasizes the importance of monosaccharide linkage on activity. […] There are additional, more subtle, effects of monosaccharide linkage on anticoagulant activity. […] Values | obtained from a linear regression analysis of the coagulation data. |^a Coagulation times estimated using the APTT test. Similar results | were obtained in duplicate assays. Concentrations of heparin and | mannopentaose phosphate SO4 (PI-88) were used which prolonged the |^a Coagulation times estimated by the APTT test. Data expressed as fold | increase in coagulation time induced by the anticoagulant compared with | untreated control.

The subject of experiment [2] is sheep plasma. Briefly: APTT test, sheep plasma. In kind it is biochemical. Conditions: for Relative Increase in Coagulation Time: APTT, Sheep plasma, vs untreated control. The text has this:
(§1) Some additional biological properties of one of the sulfated oligosaccharides, PI-88, were defined. […] Protamine is frequently used clinically to reverse the anticoagulant effects of heparin and Fragmin. […] Finally, PI-88 was examined for its ability to act as an anticoagulant in a range of mammalian species. […] Thus, sulfated oligosaccharides potentially can be used as anticoagulants/antithrombotics not only in humans but in a wide range of mammalian species.
(§2) ^a Coagulation times estimated by the APTT test. Data expressed as fold
(§3) increase in coagulation time induced by the anticoagulant compared with […]

A short description of experiment [3]: Inactivation of anticoagulant activity by protamine. The experiment is classed as biochemical.
Source text: as §1

Experiment [4] concerns rat plasma. The experiment in a line: APTT test, rat plasma. In kind it is biochemical. Conditions: for Relative Increase in Coagulation Time: APTT, Rat plasma, vs untreated control.
Source text: as §1, §2, §3

The subject of experiment [5] is heparin cofactor II. Briefly: Plasma free system: purified heparin cofactor II, thrombin and chromogenic thrombin substrate. The experiment is classed as biochemical. Conditions: data not shown. The text has this:
(§4) The manner by which the sulfated oligosaccharides inhibit the coagulation cascade was then investigated.

Experiment [6] deals with rabbit plasma. Briefly: APTT test, rabbit plasma. The experiment is classed as biochemical. Conditions: for Relative Increase in Coagulation Time: APTT, Rabbit plasma, vs untreated control.
Source text: as §1, §2, §3

For experiment [7], the system named is marmoset plasma. The experiment in a line: APTT test, marmoset plasma. In kind it is biochemical. Conditions: for Relative Increase in Coagulation Time: APTT, Marmoset plasma, vs untreated control.
Source text: as §1, §2, §3

In experiment [8] the test system is Human platelet. Briefly: Collagen- or ADP-induced platelet aggregation (platelet aggregometer). In kind it is cell-based. The note with it: for Relative Rate of Platelet Aggregation, ADP-induced Aggregation: ADP 10 μM, control without PI-88 81 ± 1; for Relative Rate of Platelet Aggregation, ADP-induced Aggregation / Relative Rate of Platelet Aggregation, Collagen-induced Aggregation: ± SD; for Relative Rate of Platelet Aggregation, Collagen-induced Aggregation: collagen 9 μg/ml, control without PI-88 114 ± 8. The method, then:
^a Human platelet aggregation induced by either collagen (9 μg/ml)
or ADP (10 μM) and relative rates of platelet aggregation estimated, in
the presence or absence of PI-88, using a platelet aggregometer. Data ±
SD representative of two platelet donors.

Experiment [9] deals with thrombin. The experiment in a line: Anti-thrombin III mediated anti-thrombin activity, chromogenic assays. In kind it is biochemical.
Source text: as §4

Experiment [10] concerns factor Xa. The experiment in a line: Anti-thrombin III mediated anti-factor Xa activity, chromogenic (Helena) anti-Xa assay. In kind it is biochemical. The note with it: FIG. 3. The method, then: Factor Xa activity was determined with the chromogenic (Helena) anti-Xa assay run on a Roche COBAS Fara biochemistry analyser.
as §4

The subject of experiment [11] is dog plasma. The experiment in a line: APTT test, dog plasma. Conditions: for Relative Increase in Coagulation Time: APTT, Dog plasma, vs untreated control. The experiment is classed as biochemical.
Source text: as §1, §2, §3

Experiment [12] concerns mouse plasma. Briefly: APTT test, mouse plasma. The experiment is classed as biochemical. The note with it: for Relative Increase in Coagulation Time: APTT, Mouse plasma, vs untreated control.
Source text: as §1, §2, §3

For Maltotriose SO4, in experiment [1] (APTT), the “Increase in Coagulation Time” value came to 0.25 s/µg.
In the case of mannopentaose phosphate sulfate [PI-88], the “Relative Increase in Coagulation Time” value in experiment [2] (PI-88 2.24 μg/ml) was 1.88 fold; in experiment [2] (PI-88 22.4 μg/ml), over 4.98 fold; in [4] (PI-88 2.24 μg/ml) it was 1.54 fold; in [4] (PI-88 22.4 μg/ml), over 5.88 fold; in experiment [6] (PI-88 2.24 μg/ml), 1.02 fold; in [6] (PI-88 22.4 μg/ml), 1.20 fold. Also, the “Relative Increase in Coagulation Time” value in experiment [7] (PI-88 2.24 μg/ml) is 1.40 fold; in experiment [7] (PI-88 22.4 μg/ml), 2.86 fold; in experiment [1] (APTT, PI-88 2.24 μg/ml), 1.42 fold; in [1] (APTT, PI-88 22.4 μg/ml), 4.65 fold; in experiment [11] (PI-88 2.24 μg/ml) it was 1.24 fold; in experiment [11] (PI-88 22.4 μg/ml), 2.42 fold. Further, the results for the “Relative Increase in Coagulation Time” value in experiment [12] (PI-88 2.24 μg/ml) and in experiment [12] (PI-88 22.4 μg/ml) were 1.13 fold and 3.03 fold, respectively. For the same compound, the “ability to act as an anticoagulant (in words)” value in experiment [2] (sheep plasma) is on record as “effective anticoagulant”; in experiment [4] (rat plasma), “effective anticoagulant”; in experiment [6] (rabbit plasma), “only weakly active”; in experiment [7] (marmoset plasma), “effective anticoagulant”; in experiment [1] (human plasma) it was “effective anticoagulant”; in experiment [11] (dog plasma), “effective anticoagulant”. Also, the “ability to act as an anticoagulant (in words)” value in experiment [12] (mouse plasma) is reported as “effective anticoagulant”. Besides, the “inactivation of the anticoagulant activity by protamine (in words)” value in [3] is recorded as “effectively inactivate”. Besides, the “enhancement of the ability of heparin cofactor II to inhibit thrombin (in words)” value in [5] was “as effectively as heparin and dermatan sulfate”. Moreover, in [8], the “inhibition of collagen- and ADP-induced platelet aggregation (in words)” value is “very weak inhibitor”. Moreover, the “Relative Rate of Platelet Aggregation, ADP-induced Aggregation” value is 74 ± 1 in experiment [8] (PI-88 21 μg/ml), 72 ± 1 in experiment [8] (PI-88 210 μg/ml) and 56 ± 2 in experiment [8] (PI-88 2100 μg/ml). Besides, the figures for the “Relative Rate of Platelet Aggregation, Collagen-induced Aggregation” value in experiment [8] (PI-88 21 μg/ml), in experiment [8] (PI-88 210 μg/ml) and in experiment [8] (PI-88 2100 μg/ml) were 97 ± 8, 86 ± 10 and 79 ± 0, respectively. The “Coagulation Time” value in experiment [1] (APTT, Mean ± SD of 20 normal donors) is 88.3 ± 11.9 s; in [1] (APTT, Normal Donor 1), 77.3 s; in [1] (APTT, Normal Donor 2) it was 89.6 s; in experiment [1] (APTT, Normal Donor 3), 94.0 s; in [1] (APTT, Normal Donor 4), 85.6 s; in experiment [1] (APTT, Normal Donor 5) it was 101.9 s. Also, the “Coagulation Time” value in experiment [1] (APTT, Normal Donor 6) stood at 95.0 s; in [1] (APTT, Normal Donor 7), 115.3 s; in experiment [1] (APTT, Normal Donor 8) it was 101.9 s; in experiment [1] (APTT, Normal Donor 9), 85.2 s; in [1] (APTT, Normal Donor 10) it was 78.0 s; in [1] (APTT, Normal Donor 11), 93.6 s. Further, the “Coagulation Time” value in experiment [1] (APTT, Normal Donor 12) amounted to 82.9 s; in experiment [1] (APTT, Normal Donor 13), 85.5 s; in [1] (APTT, Normal Donor 14), 89.7 s; in experiment [1] (APTT, Normal Donor 15), 81.2 s; in [1] (APTT, Normal Donor 16) it was 72.6 s; in [1] (APTT, Normal Donor 17), 108.0 s. Further, the “Coagulation Time” value was 70.4 s in experiment [1] (APTT, Normal Donor 18); 93.6 s in experiment [1] (APTT, Normal Donor 19); 72.6 s in experiment [1] (APTT, Normal Donor 20). Also, the “enhancement of the ability of anti-thrombin III to inhibit thrombin (in words)” value in experiment [9] (initial studies) is reported as “did not enhance”. For the same compound, in [9] (two different chromogenic assays, data not shown), the “fold less active than heparin in enhancing anti-thrombin III mediated anti-thrombin activity” value was 700-7000 fold. Further, the “fold less active than heparin or LMW heparin (Fragmin), anti-thrombin III mediated factor Xa inhibitory activity” value in experiment [10] was 100-1000 fold.
As for Mannopentaose phosphate SO4 (PI-88), the “Increase in Coagulation Time” value in experiment [1] (APTT) stood at 5.04 s/µg.
Same read-out and setting: under Isomaltohexaose SO4 stands 6.56 s/µg; under Laminaritetraose SO4, 2.9 s/µg; under Mannopentaose phosphate SO2 (PI-88), 5.67 s/µg.
On the same count and under the same terms, in the case of Mannopentaose SO4 it was 5.32 s/µg.
Regarding Cellotetraose SO4, the “anticoagulant activity (in words)” value in experiment [1] is reported as “reasonably potent anticoagulant”. For the same compound, the “Increase in Coagulation Time” value in experiment [1] (APTT) was found to be 4.2 s/µg.
Consider Maltopentaose SO4, for which, in experiment [1], the “anticoagulant activity (in words)” value is listed as “quite effective anticoagulants”. Also, the “Increase in Coagulation Time” value in experiment [1] (APTT) turned out to be 5.25 s/µg. Moreover, the “increase in anticoagulant activity on chain elongation from maltotetraose to maltopentaose” value in [1] (APTT, relative to the maltotetraose sulfate) turned out to be 19 fold.
In the case of Isomaltopentaose SO4, in experiment [1], the “anticoagulant activity (in words)” value is on record as “substantially less effective anticoagulant”. For the same compound, the “Increase in Coagulation Time” value in experiment [1] (APTT) was found to be 1.85 s/µg.
Consider Cellopentaose SO4, for which, in experiment [1] (APTT), the “Increase in Coagulation Time” value amounted to 3.5 s/µg.
In the case of Maltoheptaose SO4, the “anticoagulant activity (in words)” value in experiment [1] is “quite effective anticoagulants”. In addition, the “Increase in Coagulation Time” value in [1] (APTT) was 5.9 s/µg.
Laminarihexaose SO4: the “Increase in Coagulation Time” value in experiment [1] (APTT) is 0.9 s/µg.
Same read-out and setting: under `O=S(=O)(O)OC[C@H]1O[C@@](COS(=O)(=O)O)(O[C@H]2O[C@H](COS(=O)(=O)O)[C@@H](OS(=O)(=O)O)[C@H](OS(=O)(=O)O)[C@H]2OS(=O)(=O)O)[C@@H](OS(=O)(=O)O)[C@@H]1OS(=O)(=O)O` [Sucrose SO4] stands 0.39 s/µg.
Still for that read-out and setting: under Maltose SO4 stands 0.31 s/µg.
Consider Chitosan hexamer SO4, for which the “anticoagulant activity (in words)” value in experiment [1] is “negligible anticoagulant activity”. In experiment [1] (APTT), the “Increase in Coagulation Time” value turned out to be 0.4 s/µg.
For the compound Laminariheptaose SO4, the “Increase in Coagulation Time” value in [1] (APTT) is 0.5 s/µg.
On the same count and under the same terms, in the case of Cellohexaose SO4 it was 4.8 s/µg; in that of Maltoetraose SO4, 0.28 s/µg.
With Maltohexaose SO4, the “anticoagulant activity (in words)” value in experiment [1] is reported as “quite effective anticoagulants”. The “Increase in Coagulation Time” value in experiment [1] (APTT) stood at 5.85 s/µg.
